What follows are compounds tested on NRF2 (NQO1 activity as marker for NRF2 activation), BEAS-2B cells (assay: BEAS-2B NQO1 MTT Assay). Conditions: Homo sapiens, EC50 of NQO1 specific activity induction, 48 hours incubation, read-out: EC50.
Type: cell-based
How it was run: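 As a marker of NRF2 activation, NQO1 specific activity was read from the rate of absorbance change at 570 nm in MTT cocktail over 30 minutes. Lysates came from BEAS-2B cells treated for 48 hours at 37° C, and EC50 was derived by 3-parameter fitting.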

Q: For CC[C@H]1Cc2ccccc2S(=O)(=O)N(Cc2cc([C@@H](c3ccc4c(nnn4CC)c3C)C(C)(C)C(=O)Nc3cncnc3)ccc2C)C1 [Example 93, (S)-3-(3-(((S)-4-Ethyl-1,1-dioxido-4,5-dihydrobenzo[f][1,2]thiazepin-2(3H)-yl)methyl)-4-methylphenyl)-3-(1-ethyl-4-methyl-1H-benzo[d][1,2,3]triazol-5-yl)-2,2-dimethyl-N-(pyrimidin-5-yl)propanamide], which EC50 is on record?
A: 1 to 10 nM

Q: Which EC50 does the source give for CCn1nnc2c(C)c([C@H](c3ccc(C)c(CN4C[C@@H](C)Cc5cc(C(F)(F)F)ccc5S4(=O)=O)c3)C(C)(C)C(=O)Nc3cncnc3)ccc21 [Example 94, (S)-3-(1-Ethyl-4-methyl-1H-benzo[d][1,2,3]triazol-5-yl)-2,2-dimethyl-3-(4-methyl-3-(((S)-4-methyl-1,1-dioxido-7-(trifluoromethyl)-4,5-dihydrobenzo[f][1,2]thiazepin-2(3H)-yl)methyl)phenyl)-N-(pyrimidin-5-yl)propanamide] here?
A: 1 to 10 nM

Q: CC[C@H]1Cc2ncccc2S(=O)(=O)N(Cc2cc([C@@H](c3ccc4c(nnn4CC)c3C)C(C)(C)C(=O)Nc3cncnc3)ccc2C)C1 [Example 95, (S)-3-(3-(((S)-4-Ethyl-1,1-dioxido-4,5-dihydropyrido[2,3-f][1,2]thiazepin-2(3H)-yl)methyl)-4-methylphenyl)-3-(1-ethyl-4-methyl-1H-benzo[d][1,2,3]triazol-5-yl)-2,2-dimethyl-N-(pyrimidin-5-yl)propanamide] was tested. Which EC50 did it give?
A: 1 to 10 nM

Q: How did the EC50 turn out when CC[C@@H]1CN(Cc2cc([C@@H](c3ccc4c(nnn4CC)c3C)C(C)(C)C(=O)Nc3cncnc3)ccc2C)S(=O)(=O)c2cnccc2O1 [Example 96, (S)-3-(3-(((R)-4-Ethyl-1,1-dioxido-3,4-dihydro-2H-pyrido[4,3-b][1,4,5]oxathiazepin-2-yl)methyl)-4-methylphenyl)-3-(1-ethyl-4-methyl-1H-benzo[d][1,2,3]triazol-5-yl)-2,2-dimethyl-N-(pyrimidin-5-yl)propanamide] was run?
A: 1 to 10 nM

Q: For CC[C@@H]1CN(Cc2cc([C@@H](c3ccc4c(nnn4CC)c3C)C(C)(C)C(=O)Nc3cncnc3)ccc2C)S(=O)(=O)c2ccc(Br)cc2O1 [Example 97, (S)-3-(3-(((R)-7-Bromo-4-ethyl-1,1-dioxido-3,4-dihydro-2H-benzo[b][1,4,5]oxathi-azepin-2-yl)methyl)-4-methylphenyl)-3-(1-ethyl-4-methyl-1H-benzo[d][1,2,3]triazol-5-yl)-2,2-dimethyl-N-(pyrimidin-5-yl)propanamide], which EC50 is on record?
A: 1 to 10 nM

Q: CC[C@@H]1CN(Cc2cc([C@@H](c3ccc4c(nnn4CC)c3C)C(C)(C)C(=O)Nc3cncnc3)ccc2C)S(=O)(=O)c2cc(Br)ccc2O1 [Example 98, (S)-3-(3-(((R)-8-Bromo-4-ethyl-1,1-dioxido-3,4-dihydro-2H-benzo[b][1,4,5]oxathi-azepin-2-yl)methyl)-4-methylphenyl)-3-(1-ethyl-4-methyl-1H-benzo[d][1,2,3]triazol-5-yl)-2,2-dimethyl-N-(pyrimidin-5-yl)propanamide] was tested. Which EC50 did it give?
A: 1 to 10 nM

Q: How did the EC50 turn out when CC[C@@H]1CN(Cc2cc([C@@H](c3ccc4c(nnn4CC)c3C)C(C)(C)NC(N)=O)ccc2C)S(=O)(=O)c2ccccc2O1 [Example 99, 1-((S)-1-(3-(((R)-4-ethyl-1,1-dioxido-3,4-dihydro-2H-benzo[b][1,4,5]oxathiazepin-2-yl)methyl)-4-methylphenyl)-1-(1-ethyl-4-methyl-1H-benzo[d][1,2,3]triazol-5-yl)-2-methylpropan-2-yl)urea] was run?
A: 100 to 1000 nM

Q: How did the EC50 turn out when CC[C@@H]1CN(Cc2cc([C@@H](c3ccc4c(nnn4C)c3C)C(C)(C)C(=O)NC3CCOC3)ccc2C)Cc2cnccc2O1 (stereo partly drawn) [Example 100, (3S)-3-(1,4-Dimethyl-1H-benzo[d][1,2,3]triazol-5-yl)-3-(3-(((R)-2-ethyl-2,3-dihydropyrido[3,44][1,4]oxazepin-4(5H)-yl)methyl)-4-methylphenyl)-2,2-dimethyl-N-(tetrahydrofuran-3-yl)propanamide] was run?
A: 100 to 1000 nM

Q: CC[C@@H]1CN(Cc2cc([C@@H](c3ccc4c(nnn4C)c3C)C(C)(C)C(=O)NC3CCS(=O)(=O)C3)ccc2C)Cc2cnccc2O1 (stereo partly drawn) [Example 101, (3S)-3-(1,4-Dimethyl-1H-benzo[d][1,2,3]triazol-5-yl)-N-(1,1-dioxidotetrahydrothio-phen-3-yl)-3-(3-(((R)-2-ethyl-2,3-dihydropyrido[3,4-f][1,4]oxazepin-4(5H)-yl)methyl)-4-methylphenyl)-2,2-dimethylpropanamide] was tested. Which EC50 did it give?
A: 10 to 100 nM

Q: For CC[C@@H]1CN(Cc2cc([C@@H](c3ccc4c(nnn4CC)c3C)C(C)(C)C(=O)NCCNC)ccc2C)S(=O)(=O)c2cccnc2O1 [Example 102, (S)-3-(3-(((R)-4-Ethyl-1,1-dioxido-3,4-dihydro-2H-pyrido[2,3-b][1,4,5]oxathiazepin-2-yl)methyl)-4-methylphenyl)-3-(1-ethyl-4-methyl-1H-benzo[d][1,2,3]triazol-5-yl)-2,2-dimethyl-N-(2-(methylamino)ethyl) propanamide], which EC50 is on record?
A: 10 to 100 nM

Q: Which EC50 does the source give for CC[C@H]1Cc2ncccc2S(=O)(=O)N(Cc2cc([C@H](CC(=O)Nc3cccnc3)c3ccc4c(nnn4CC)c3C)ccc2C)C1 [Example 103, (S)-3-(3-(((S)-4-Ethyl-1,1-dioxido-4,5-dihydropyrido[2,3-f][1,2]thiazepin-2(3H)-yl)methyl)-4-methylphenyl)-3-(1-ethyl-4-methyl-1H-benzo[d][1,2,3]triazol-5-yl)-N-(pyridin-3-yl)propanamide] here?
A: 10 to 100 nM

Q: How did the EC50 turn out when CC[C@@H]1CN(Cc2cc([C@@H](c3ccc4c(nnn4CC)c3C)C(C)(C)C(=O)NCc3ncc[nH]3)ccc2C)S(=O)(=O)c2cccnc2O1 [Example 104, (S)-N-((1H-Imidazol-2-yl)methyl)-3-(3-(((R)-4-ethyl-1,1-dioxido-3,4-dihydro-2H-pyrido[2,3-b][1,4,5]oxathiazepin-2-yl)methyl)-4-methylphenyl)-3-(1-ethyl-4-methyl-1H-benzo[d][1,2,3]triazol-5-yl)-2,2-dimethylpropanamide] was run?
A: 100 to 1000 nM

Q: Which EC50 does the source give for CC[C@H]1Cc2ncccc2S(=O)(=O)N(Cc2cc([C@H](CC(=O)Nc3cncnc3)c3ccc4c(nnn4CC)c3C)ccc2C)C1 [Example 105, (S)-3-(3-(((S)-4-Ethyl-1,1-dioxido-4,5-dihydropyrido[2,3-f][1,2]thiazepin-2(3H)-yl)methyl)-4-methylphenyl)-3-(1-ethyl-4-methyl-1H-benzo[d][1,2,3]triazol-5-yl)-N-(pyrimidin-5-yl)propanamide] here?
A: 10 to 100 nM

Q: For CC[C@@H]1CN(Cc2cc([C@@H](c3ccc4c(nnn4CC)c3C)C(C)(C)C(=O)NC3CCS(=O)(=O)C3)ccc2C)S(=O)(=O)c2cccnc2O1 (stereo partly drawn) [Example 106, (3S)-N-(1,1-Dioxidotetrahydrothio-phen-3-yl)-3-(3-(((R)-4-ethyl-1,1-dioxido-3,4-dihydro-2H-pyrido[2,3-b][1,4,5]oxathiazepin-2-yl)methyl)-4-methylphenyl)-3-(1-ethyl-4-methyl-1H-benzo[d][1,2,3]triazol-5-yl)-2,2-dimethylpropanamide], which EC50 is on record?
A: 100 to 1000 nM

Q: Which EC50 does the source give for CC[C@@H]1CN(Cc2cc([C@H](CC(=O)Nc3ccnnc3)c3ccc4c(nnn4CC)c3C)ccc2C)S(=O)(=O)c2cccnc2O1 [Example 107, (S)-3-(3-(((R)-4-Ethyl-1,1-dioxido-3,4-dihydro-2H-pyrido[2,3-b][1,4,5]oxathiazepin-2-yl)methyl)-4-methylphenyl)-3-(1-ethyl-4-methyl-1H-benzo[d][1,2,3]triazol-5-yl)-N-(pyridazin-4-yl)propanamide] here?
A: 100 to 1000 nM

Q: Which EC50 does the source give for CC[C@@H]1CN(Cc2cc([C@H](CC(=O)Nc3ccncn3)c3ccc4c(nnn4CC)c3C)ccc2C)S(=O)(=O)c2cccnc2O1 [Example 108, (S)-3-(3-(((R)-4-Ethyl-1,1-dioxido-3,4-dihydro-2H-pyrido[2,3-b][1,4,5]oxathiazepin-2-yl)methyl)-4-methylphenyl)-3-(1-ethyl-4-methyl-1H-benzo[d][1,2,3]triazol-5-yl)-N-(pyrimidin-4-yl)propanamide] here?
A: 100 to 1000 nM

Q: For CC[C@@H]1CN(Cc2cc([C@H](CC(=O)Nc3cncnc3)c3ccc4c(nnn4CC)c3C)ccc2C)S(=O)(=O)c2cccnc2O1 [Example 109, (S)-3-(3-(((R)-4-Ethyl-1,1-dioxido-3,4-dihydro-2H-pyrido[2,3-b][1,4,5]oxathiazepin-2-yl)methyl)-4-methylphenyl)-3-(1-ethyl-4-methyl-1H-benzo[d][1,2,3]triazol-5-yl)-N-(pyrimidin-5-yl)propanamide], which EC50 is on record?
A: 10 to 100 nM

Q: For CC[C@@H]1CN(Cc2cc([C@H](CC(=O)Nc3cccnc3)c3ccc4c(nnn4CC)c3C)ccc2Cl)S(=O)(=O)c2cccnc2O1 [Example 110, (S)-3-(4-Chloro-3-(((R)-4-ethyl-1,1-dioxido-3,4-dihydro-2H-pyrido[2,3-b][1,4,5]oxathiazepin-2-yl)methyl)phenyl)-3-(1-ethyl-4-methyl-1H-benzo[d][1,2,3]triazol-5-yl)-N-(pyridin-3-yl)propanamide], which EC50 is on record?
A: 10 to 100 nM

Q: CC[C@@H]1CN(Cc2cc([C@@H](c3ccc4c(nnn4C)c3C)C(C)(C)C(=O)Nc3ccncc3)ccc2C)Cc2cnccc2O1 [Example 112, (S)-3-(1,4-Dimethyl-1H-benzo[d][1,2,3]triazol-5-yl)-3-(3-(((R)-2-ethyl-2,3-dihydropyrido[3,4-f][1,4]oxazepin-4(5H)-yl)methyl)-4-methylphenyl)-2,2-dimethyl-N-(pyridin-4-yl)propanamide] was tested. Which EC50 did it give?
A: 100 to 1000 nM

Q: Which EC50 does the source give for CC[C@@H]1CN(Cc2cc([C@@H](c3ccc4c(nnn4CC)c3C)C(C)(C)C(=O)N[C@H]3CCOC3)ccc2C)S(=O)(=O)c2cccnc2O1 [Example 113, (S)-3-(3-(((R)-4-Ethyl-1,1-dioxido-3,4-dihydro-2H-pyrido[2,3-b][1,4,5]oxathiazepin-2-yl)methyl)-4-methylphenyl)-3-(1-ethyl-4-methyl-1H-benzo[d][1,2,3]triazol-5-yl)-2,2-dimethyl-N-((S)-tetrahydrofuran-3-yl)propanamide] here?
A: 10 to 100 nM
